Tests used:
Format in all cases: cell-based
[1] = test system: 22Rv-1; assay: 3D Cell Proliferation Screen, 22Rv-1; details: Homo sapiens, 22Rv1, 120 h; 22Rv-1 prostate spheroids, 5 days; relative to T0; positive control
Procedure: (§1) Experimental Methods: 3D Cell Proliferation Assay
(§2) Cells were seeded at 1000 cells/well in media in 384-well Corning® Spheroid microplates. The microplates were incubated at 37 C in 5% CO2 incubator to allow for spheroid formation.
(§3) Aliquots of each sample were vortexed and centrifuged at 3,000 rpm (800 g) for 5 minutes at room temperature. Supernatants (500-fold stocks) were stored under sterile conditions at 4 C.
(§4) On the day of the assay, a 9-point dose-response of each 500-fold stock was prepared and added to the spheroid plates to provide final assay concentrations ranging from 1e-04 to 1-fold, in 0.2% DMSO. Final assay conditions for each sample are shown on Table 1.
(§5) Assay plates were incubated at 37 C in an atmosphere containing 5% CO2 for 5 days. […] Cell viability was determined at 5 days post-compound addition. Briefly, 3D-CellTiter Glow™ reagent (Promega) was added to assay plates per the manufacturer's recommendations. Plates were shaken until spheroids were lysed and luminescence was read at room temperature.
(§6) Cell proliferation end point was analyzed as Percent of Control (POC) using the following formula: […]
(§7) EC50, IC50 and GI50 values were calculated using nonlinear regression to fit data to a sigmoidal 4-point, 4-parameter log-logistic dose response model: […]

[2] = test system: T24; assay: 3D Cell Proliferation Screen, T24; details: Homo sapiens, T-24, 120 h, T24 bladder spheroids, 5 days, positive control
Procedure: as §1, §2, §3, §4, §5, §6
(§8) A relative cell count EC50 is the concentration of the test compound that produces a response half-way between the maximum and baseline. Relative cell count IC50 is the concentration of the test compound that produces 50% of the cell proliferation inhibitory response or 50% cytotoxicity level. GI50 is the concentration of the test compound that produces 50% reduction in proliferation of cancer cells relative to T0. The output of each biomarker is fold-increase over vehicle control background normalized to the relative cell count in each well.
(§9) EC50, IC50 and GI50 values were calculated using nonlinear regression to fit data to a sigmoidal 4-point, 4-parameter log-logistic dose response model:
(§10) Curve-fitting and EC50 calculations were performed using the R statistical software package with R's drc library.

[3] = test system: HT-29; assay: 3D Cell Proliferation Screen, HT-29; details: Homo sapiens, 120 h, HT-29 colon spheroids, 5 days, positive control
Procedure: as §1, §2, §3, §4, §5, §6, §8, §9, §10

[4] = test system: NCI-H460; assay: 3D Cell Proliferation Screen, NCI-H460; details: Homo sapiens, 120 h; NCI-H460 lung spheroids, 5 days; relative to T0; positive control
Procedure: as §1, §2, §3, §4, §5, §6, §7

[5] = test system: PC-3; assay: 3D Cell Proliferation Screen, PC-3; details: Homo sapiens, 120 h, PC-3 prostate spheroids, 5 days, positive control
Procedure: as §1, §2, §3, §4, §5, §6, §7

[6] = test system: T-47D; assay: 3D Cell Proliferation Screen, T-47D; details: Homo sapiens, T47D, 120 h, T-47D breast spheroids, 5 days, positive control
Procedure: as §1, §2, §3, §4, §5, §6, §8, §9, §10

[7] = test system: BT-474; assay: 3D Cell Proliferation Screen, BT-474; details: Homo sapiens, 120 h; BT-474 breast spheroids, 5 days; relative to T0; positive control
Procedure: as §1, §2, §3, §4, §5, §6, §7

[8] = test system: A-549; assay: 3D Cell Proliferation Screen, A-549; details: Homo sapiens, A549, 120 h, A-549 lung spheroids, 5 days, positive control
Procedure: as §1, §2, §3, §4, §5, §6, §7

For `CN[C@@H]1C[C@H]2O[C@@](C)([C@@H]1OC)n1c3ccccc3c3c4c(c5c6ccccc6n2c5c31)C(=O)NC4` [Staurosporine], the GI50 [1] was 13 nM, the EC50 [2] was 13 nM and the IC50 [2] was 13 nM. For the same molecule, the GI50 ([2]; relative to T0) was 1 nM, the EC50 [3] was 9 nM and the IC50 [3] was 9 nM. It also gave a GI50 ([3]; relative to T0) of 7 nM, a GI50 [4] of 17 nM and an IC50 [5] of 4 nM. It also gave a GI50 ([5]; relative to T0) of 1 nM, an EC50 [6] of 101 nM and an IC50 [6] of 101 nM. The GI50 ([6]; relative to T0) was 38 nM, the GI50 [7] was 3 nM and the EC50 [8] was 17 nM. For the same molecule, the GI50 ([8]; relative to T0) was 11 nM.

Source: US20240091292A1, “METHODS FOR TREATMENT OF HUMAN CANCERS USING CANNABIS COMPOSITIONS” (Apollon Formularies PLC, priority 2021, published 2024)
